Assay results as given in paper PMC9119314 (Frontiers in Pharmacology, 2022).
“And” between values parts separate entries of the source, which are not always exact repeats. Equal entries are not always repeated.

Columns and labels:
P. falciparum K1 = test: In vitro antiplasmodial activity, P. falciparum K1 (lactate dehydrogenase assay); type: cell-based, Plasmodium falciparum; details: for IC50: Plasmodium falciparum, chloroquine-resistant strain K1, 48 h, mean ± SE, read-out: Activity against P. falciparum K1, IC50
Description: P. falciparum (K1 clone) was maintained in human erythrocytes prepared from the donated blood samples (blood groups unknown, Ethical Tissue, University of Bradford), suspended in the RPMI 1640 medium as previously described ([Wright et al., 2001]), except that serum was replaced with Albumax II, [5% (^w/v)]. […] Twofold serial dilutions were made in 96-well microtiter plates in duplicate, and infected erythrocytes were added to give a final volume of 100 µL with 2.5% hematocrit and 1% parasitemia. Chloroquine diphosphate was used as a positive control, and uninfected and infected erythrocytes without compounds were included in each test. The plates were placed into a modular incubator; gassed with 93% nitrogen, 3% oxygen, and 4% carbon dioxide; and incubated at 37°C for 48 h. The parasite growth was assessed by measuring lactate dehydrogenase activity as described by [Makler et al. (1993)]. The reagent used contained the following in each mL: acetylpyridine adenine dinucleotide (APAD), 0.74 mg; lithium lactate, 19.2 mg; diaphorase, 0.1 mg; Triton X-100, 2 μL; nitroblue tetrazolium, 1 mg; and phenazine ethosulphate, 0.5 mg. Fifty microliter of this reagent was added to each well and mixed; plates were incubated for 15 min at 37°C. The optical densities were read at 550 nm using an Azure 96-well microplate reader (Azure Biosystems Inc.), and % inhibition of growth was calculated by comparison with the control values. IC50 values were determined using linear regression analysis (Microsoft Excel). A minimum of three separate determinations was carried out for each compound.

A2780/cis cells = test: Chemosensitivity MTT assay, cisplatin-resistant A2780/CIS; type: cell-based, human; details: Homo sapiens, A2780cis, 96 h, ± SE, read-out: Activity against A2780/cis cells, IC50
Description: (§1) The chemosensitivity of compounds 3–6 was assessed in the wild-type immortalized human ovarian adenocarcinoma cell line A2780 and its daughter cell lines, which are resistant to the standard cancer chemotherapeutics doxorubicin (A2780/ADR) and cisplatin (A2780/CIS, all cell lines from ECACC, Salisbury, United Kingdom). A modified MTT assay was used ([Shnyder et al., 2008]). Cells (2 × 10^4/ml) were inoculated into each well of a 96-well plate and incubated for 24 h at 37°C in a humidified atmosphere containing 5% CO2. Compounds were then added at a range of concentrations to each well, and the plates were then incubated for a further 96 h. After 96 h, the culture medium was removed and 200 μL of 0.5 mg ml^–1 MTT solution (Sigma) in the complete medium was added to each well. Following a further 4 h incubation, the solution was removed from each well and 150 μL of DMSO was added to solubilize the formazan crystals resulting from MTT conversion. The absorbance values for the resulting solutions were read at 540 nm on an Azure 96-well microplate reader (Azure Biosynstems Inc.), and the cell survival was calculated as the absorbance of treated cells divided by the control.

P. falciparum 3D7 = test: In vitro antiplasmodial activity, P. falciparum 3D7 (SYBR Green I); type: cell-based; details: Plasmodium falciparum; chloroquine-sensitive strain 3D7, 48 h; read-out: Activity against P. falciparum 3D7, IC50
Description: P. falciparum (3D7 clone) and P. knowlesi (A1-H.1 clone) were maintained in culture in RPMI 1640 supplemented with 25 mM HEPES, 25 mM NaHCO3, 10 mM D-glucose, 2 mM L-glutamine, 50 mg/L hypoxanthine, 25 mg/L gentamicin sulfate, 5 g/L Albumax II, and 10% (v/v) equine serum (Thermo Fisher Scientific, 26-050-088). The P. falciparum (3D7) and P. knowlesi (A1-H.1) parasites were grown in human A^+ red blood cells (National Health Blood and Transplant, United Kingdom). The parasites were incubated in sealed flasks at 37°C under a culture gas mixture of 96% N2, 3% CO2, and 1% O2. ([van Schalkwyk et al., 2019]). The compounds were initially dissolved in DMSO prior to diluting in RPMI. All experiments were initiated using unsynchronized parasites with both the parasitemia and hematocrit set to 1%. Drug susceptibility assays were set up in 96-well, flat-bottom microplates in a final volume of 200 μL, as described previously ([van Schalkwyk et al., 2017]). The controls were included for the background fluorescence (0% viability; parasites exposed to a supralethal 10 μM chloroquine concentration) and 100% growth (parasites in drug-free wells). The plates were incubated for one complete life cycle (27 h for P. knowlesi or 48 h for P. falciparum in vitro) at 37°C in a modular incubation chamber (Billups-Rothenburg Inc.) under the culture gas. Upon termination of the assay, the plates were stored at −20°C overnight. The SYBR Green I fluorescent method was used to measure parasite survival ([Bennett et al., 2004]; [Smilkstein et al., 2004]). After the microplates were thawed, 100 μL from each well was transferred into a duplicate plate. To this was added 100 μL of SYBR green solution [SYBR Green I (Thermo Fisher Scientific, S7563), diluted 1:5000 in a lysis buffer made of 20 mM Tris, 5 mM EDTA, 0.008% (w/v) saponin, 0.08% (v/v) Triton X-100, pH 7.5]. The plates were stored in the dark for 1 h before fluorescence was read at a 490 nm excitation wavelength and a 520 nm emission wavelength on a Spectramax M3 microplate reader (Molecular Devices) ([van Schalkwyk et al., 2017]). The background fluorescence (wells with parasites at 0% viability) was subtracted from all drug assay wells, and the parasite proliferation was determined as a percentage of the fluorescence in the drug-free control wells.

A2780/WT cells = test: Chemosensitivity MTT assay, A2780 wild type; type: cell-based, human; details: Homo sapiens, A2780, 96 h, ± SE, read-out: Activity against A2780/WT cells, IC50
Description: as §1

[1] = system: P. falciparum (NF54-Mal8p1.16-GFP-Luc) late-stage gametocytes; test: microbe, parasite or virus in culture; type: cell-based, Plasmodium falciparum
Description: Gametocytes were produced as per [Reader et al. (2015]; [2021)] from P. falciparum NF54-Mal8p1.16-GFP-Luc ([Adjalley et al., 2011]), and each batch was validated for viability and functionality before use. […] Drug assays were set up on day 10 (representing late gametocytes, >90% stage IV/V gametocytes) using a 2–3% gametocytemia, 1.5% hematocrit culture. The drug pressure was for 48 h under stationary, hypoxic conditions (90% N2, 5% O2, and 5% CO2) at 37°C. Luciferase activity was determined in 30 μL parasite lysates by adding 30 μL luciferin substrate (Promega Luciferase Assay System) at room temperature and detection of resultant bioluminescence at an integration constant of 10 s with the GloMax®-Multi + Detection System with Instinct® Software. Methylene blue (5 μM) and an internal control (MMV390048, 5 μM) were routinely included as controls.

Row | SMILES | IC50 (P. falciparum K1) [nM] | Selectivity index (SI), P. falciparum K1 with respect to Hep G cells (P. falciparum K1) | IC50 (A2780/cis cells) [nM] | IC50 (P. falciparum 3D7) [nM] | IC50 (A2780/WT cells) [nM] | IC50 ([1]; Plasmodium falciparum, NF54, 48 h, read-out: Activity against late-stage gametocytes IC50) [nM] | Selectivity index (SI), late-stage gametocytes with respect to Hep G cells ([1]; SI with respect to Hep G cells)
1 | C[n+]1c2ccccc2cc2[n-]c3ccc(I)cc3c21 [Compound 5, 7-iodocryptolepine] | 160 ± 30 | 41.9 | 310 ± 190 | 92 ± 20 | 60 ± 10 |  | 
2 | C[n+]1c2ccccc2cc2[n-]c3c(Br)cc(Br)cc3c21 [Compound 4, 7,9-Dibromocryptolepine] | 440 ± 90 | 15.4 | 580 ± 100 | 760 ± 60 | 200 ± 580 |  | 
3 | C[n+]1c2ccccc2cc2[n-]c3c(I)cc(I)cc3c21 [Compound 6, 7,9-diiodocryptolepine] | 250 ± 40 | 113 | 280 ± 50 | 660 ± 60 | 130 ± 70 | 2200 ± 20 | 13 and 12.8
